From PubChem BioAssay AID434956 (The Scripps Research Institute Molecular Screening Center, 2010)
The source made the active and inactive calls. The rule behind the calls is not given here.

What follows are compounds tested on IEC-6 cytotoxicity, ATP luminescence (assay: IEC-6 epithelial cell viability loss – luminescence, dose response, round 1, cytotoxicity control for KLF5 inhibitor project, late-stage follow-up (AID 434956)).

Question: For Cc1ccc(OCC(=O)Nc2ccc3nn(-c4cccc(C(F)(F)F)c4)nc3c2)cc1C, which IC50 is on record?
Answer: Its IC50 is > 39.8 µM (inactive).

Question: Which IC50 does the source give for CS(=O)(=O)c1ccc2nc(Nc3nc4ccc(F)cc4s3)sc2c1 here?
Answer: The IC50 was 19.1 µM (inactive).

Question: With CC(C)c1ccc2nc(Nc3nc4ccc(F)cc4s3)sc2c1 as the compound, how does the IC50 read?
Answer: The IC50 was > 39.8 µM (inactive).

Question: How did the IC50 turn out when CC(=O)Nc1ccc2nc(Nc3nc4ccc(F)cc4s3)sc2c1 was run?
Answer: Its IC50 is 14.7 µM (inactive).

Question: For CCNC(=O)c1ccc2nc(Nc3nc4ccc(F)cc4s3)sc2c1, which IC50 is on record?
Answer: The IC50 was 14.7 µM (inactive).

Question: Which IC50 does the source give for CC(C)(C)c1ccc(-c2noc(CCCC(=O)Nc3ccccc3Cl)n2)cc1 here?
Answer: The IC50 was > 39.8 µM (inactive).

Question: COc1ccc2nc(Nc3nc4ccc(F)cc4s3)sc2c1 was tested. Which IC50 did it give?
Answer: The IC50 was > 39.8 µM (inactive).

Question: Which IC50 does the source give for CC(C)(C)c1ccc(-c2noc(CCC(=O)NCc3ccccc3)n2)cc1 here?
Answer: Its IC50 is 24.1 µM (inactive).

Question: How did the IC50 turn out when O=C(Nc1cc2nn(-c3ccccc3)nc2cc1Cl)C1CC1 was run?
Answer: Its IC50 is > 39.8 µM (inactive).

Question: For CC(C)(C)c1ccc(-c2noc(CCC(=O)Nc3ccncc3)n2)cc1, which IC50 is on record?
Answer: The IC50 was 25.6 µM (inactive).

Question: With CC(C)C(=O)Nc1ccc2nn(-c3ccc(Cl)cc3)nc2c1 as the compound, how does the IC50 read?
Answer: The IC50 was > 39.8 µM (inactive).

Question: O=C(Cc1ccccc1)Nc1cc2nn(-c3ccccc3)nc2cc1Cl was tested. Which IC50 did it give?
Answer: Its IC50 is > 39.8 µM (inactive).

Question: Nc1cc2nn(-c3ccccc3)nc2cc1Cl was tested. Which IC50 did it give?
Answer: The IC50 was > 39.8 µM (inactive).

Question: How did the IC50 turn out when CCOc1ccc(NC(=O)CCc2nc(-c3ccc(C(C)(C)C)cc3)no2)cc1 was run?
Answer: The IC50 was > 39.8 µM (inactive).

Question: For Cc1ccc(-n2nc3cc(Cl)c(NC(=O)c4cccnc4)cc3n2)cc1, which IC50 is on record?
Answer: The IC50 was 17.8 µM (inactive).

Question: With Cc1ccc(-n2nc3ccc(NC(=O)COc4ccc(C)c(C)c4)cc3n2)cc1 as the compound, how does the IC50 read?
Answer: Its IC50 is > 39.8 µM (inactive).

Question: For O=C(COc1ccccc1)Nc1ccc2nn(-c3cccc(Cl)c3)nc2c1, which IC50 is on record?
Answer: Its IC50 is > 39.8 µM (inactive).

Question: How did the IC50 turn out when CC(C)(C)c1ccc(-c2noc(CCC(=O)Nc3ccccc3)n2)cc1 was run?
Answer: The IC50 was > 39.8 µM (inactive).

Question: How did the IC50 turn out when COc1ccc(-n2nc3ccc(NC(=O)C4CCN(S(=O)(=O)c5ccc(Cl)cc5)CC4)cc3n2)cc1 was run?
Answer: The IC50 was 31.2 µM (inactive).

Question: COc1ccc(-n2nc3cc(C)c(NC(=O)C(C)C)cc3n2)cc1 was tested. Which IC50 did it give?
Answer: The IC50 was > 39.8 µM (inactive).

Question: With CC(C)(C)C(=O)Nc1ccc2nn(-c3ccccc3)nc2c1 as the compound, how does the IC50 read?
Answer: Its IC50 is > 39.8 µM (inactive).

Question: With CC(C)(C)C(=O)Nc1ccc2nn(-c3ccc(F)cc3)nc2c1 as the compound, how does the IC50 read?
Answer: The IC50 was > 39.8 µM (inactive).

Question: For CC(C)(C)c1ccc(-c2noc(CCc3nc4ccccc4[nH]3)n2)cc1, which IC50 is on record?
Answer: Its IC50 is 31.8 µM (inactive).

Question: For CN(C)C(=O)c1ccc2nc(Nc3nc4ccc(F)cc4s3)sc2c1, which IC50 is on record?
Answer: Its IC50 is 15.7 µM (inactive).

Question: How did the IC50 turn out when CC(C)(C)c1ccc(-c2noc(CCC(=O)Nc3ccc(N4CCOCC4)nc3)n2)cc1 was run?
Answer: Its IC50 is > 39.8 µM (inactive).

Question: CCNC(=O)c1sc(NC(=O)c2ccc3ncsc3c2)nc1C was tested. Which IC50 did it give?
Answer: The IC50 was > 39.8 µM (inactive).

Question: With Cc1cccc(NC(=O)CCc2nc(-c3ccc(C(C)(C)C)cc3)no2)c1 as the compound, how does the IC50 read?
Answer: Its IC50 is > 39.8 µM (inactive).

Question: O=C(Nc1cc2nn(-c3ccccc3)nc2cc1Cl)C1COc2ccccc2C1 (configuration not stated) was tested. Which IC50 did it give?
Answer: Its IC50 is > 39.8 µM (inactive).

Question: For CC(=O)c1sc(NC(=O)c2ccc3ncsc3c2)nc1-c1ccccc1, which IC50 is on record?
Answer: The IC50 was > 39.8 µM (inactive).

Question: Which IC50 does the source give for CC(C)(C)c1ccc(-c2coc(CCC(=O)Nc3ccccn3)n2)cc1 here?
Answer: Its IC50 is > 39.8 µM (inactive).

Question: With COc1ccc(-n2nc3ccc(NC(=O)C(C)(C)C)cc3n2)cc1 as the compound, how does the IC50 read?
Answer: The IC50 was > 39.8 µM (inactive).

Question: How did the IC50 turn out when Cc1nc(NC(=O)c2ccc3ncsc3c2)sc1C(=O)N(C)C was run?
Answer: The IC50 was > 39.8 µM (inactive).

Question: For CCOc1ccc2nc(Nc3nc4ccc(F)cc4s3)sc2c1, which IC50 is on record?
Answer: The IC50 was > 39.8 µM (inactive).

Question: How did the IC50 turn out when CC(C)(C)c1ccc(-c2noc(CCC(=O)Nc3ccccn3)n2)cc1 was run?
Answer: The IC50 was > 39.8 µM (inactive).

Question: CC(NC(=O)c1ccccc1)c1nc(-c2ccc(C(C)(C)C)cc2)no1 (configuration not stated) was tested. Which IC50 did it give?
Answer: The IC50 was 41.4 µM (inactive).

Question: Which IC50 does the source give for CC(=O)c1sc(NC(=O)c2ccc3ncsc3c2)nc1C here?
Answer: The IC50 was > 39.8 µM (inactive).

Question: With CC1(C)CC(=O)c2sc(NC(=O)c3ccc4ncsc4c3)nc2C1 as the compound, how does the IC50 read?
Answer: Its IC50 is > 39.8 µM (inactive).
